Article PMC10029296, “Glepaglutide, a novel glucagon-like peptide-2 agonist, has anti-inflammatory and mucosal regenerative effects in an experimental model of inflammatory bowel disease in rats” (BMC Gastroenterology, 2023)
No end group written: not given here.

Columns and labels:
male Wistar rats [1] = details: rat, in vivo
Experimental: In this study, a dose of INDO 7 mg/kg was used based on the results of an INDO-induced small intestinal inflammation model validation study conducted by Zealand Pharma.

male Wistar rats [2] = assay: INDO-induced small intestinal inflammation model validation study (INDO dose finding); details: data not shown
hGLP-2R = molecular target: T1, hGLP-2R (Homo sapiens, UniProt O95838, D470N); assay: cAMP accumulation assay in HEK293 cells stably expressing hGLP-2R (AlphaScreen)
T1 sequence (O95838 1-553 D470N): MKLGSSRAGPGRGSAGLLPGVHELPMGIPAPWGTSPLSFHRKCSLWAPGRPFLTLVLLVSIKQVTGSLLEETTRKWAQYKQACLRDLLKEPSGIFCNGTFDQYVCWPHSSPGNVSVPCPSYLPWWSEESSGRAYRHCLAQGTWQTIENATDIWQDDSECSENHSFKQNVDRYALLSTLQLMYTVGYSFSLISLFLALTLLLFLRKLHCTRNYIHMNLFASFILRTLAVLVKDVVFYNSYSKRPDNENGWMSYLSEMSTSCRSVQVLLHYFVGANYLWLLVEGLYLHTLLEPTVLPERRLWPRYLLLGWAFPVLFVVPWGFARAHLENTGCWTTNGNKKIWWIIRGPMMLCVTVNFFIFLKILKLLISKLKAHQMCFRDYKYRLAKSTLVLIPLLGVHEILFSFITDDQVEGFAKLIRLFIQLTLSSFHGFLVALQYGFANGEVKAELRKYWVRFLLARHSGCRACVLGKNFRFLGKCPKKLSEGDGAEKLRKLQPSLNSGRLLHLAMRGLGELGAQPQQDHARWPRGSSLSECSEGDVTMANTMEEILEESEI
Experimental: For assaying, HEK293 cells stably expressing hGLP-2R were seeded at 30,000 cells per well in 96-well microtiter plates coated with 0.01% poly-L-lysine. […] The reaction was stopped by decanting off the compound/buffer and replacing it with 80 µl lysis/detection buffer consisting of deionized water supplemented with 0.1% w/v BSA (Sigma-Aldrich A9430), 5 mM HEPES, and 0.3% v/v Tween-20 (Sigma-Aldrich P7949).
Compound potency (EC50) and maximal effect (Emax) values were estimated by computer-aided curve fitting using a three-parameter logistic non-linear model.

[3] = test system: Wistar rats with INDO-induced small intestinal inflammation; assay: INDO-induced small intestinal inflammation model, co- and post-treatment; type: in vivo, rat; details: 400 nmol/kg SC twice daily
Experimental: Two treatment regimens were studied: glepaglutide (400 nmol/kg, SC, twice daily) was administered in a co-treatment regimen (Fig. 1B – administered at inflammation onset and throughout), and a post-treatment regimen (Fig. 1C – administered after inflammation onset and throughout).
Two groups of controls, INDO controls (administered with INDO and treated with vehicle) and controls (administered with saline solution and treated with vehicle), were included in the studies (Fig. 1B and C). Groups of rats (n = 7–15) were sacrificed during the active inflammation phase (2–3 days after inflammation onset), on day 3 for the co-treatment regimen (Fig. 1B) and on day 4 for the post-treatment regimen (Fig. 1C), to determine small intestinal length, jejunal and ileal mass, and α-1-acid glycoprotein (α-1-AGP) and myeloperoxidase (MPO) concentrations in the jejunum and ileum. Equivalent groups of rats were sacrificed during the body weight recovery phase (14–15 days after inflammation onset), on day 14 for the co-treatment regimen (Fig. 1B), and on day 16 for the post-treatment regimen (Fig. 1C), to determine jejunal and ileal mass. Body weight and survival were recorded daily.
(§1) Animals were anesthetized with carbon dioxide and then sacrificed by cervical dislocation. The small intestine (from the pylorus to the ileocecal junction) was dissected away from the abdomen and the surrounding mesenteric fat. Small intestinal length was measured after weighing the small intestine with a 1 g weight to obtain uniform tension. Thereafter, the small intestine was divided into two segments of equal length labeled as the jejunum and ileum. Segments were gently flushed with 0.9% saline, padded dry, and weighed. A 5 cm biopsy was collected 10 cm distal from the start of the jejunal segment, and another 5 cm biopsy was collected 10 cm distal from the start of the ileal segment. The biopsies were immediately frozen in liquid nitrogen and stored at -80 °C for later analysis of concentrations of α-1-AGP and MPO using commercially available enzyme-linked immunosorbent assay kits (Life Diagnostics [2510–2] and Hycult Biotech [HK 210], respectively). The preparation method was validated in house.
Data are presented as mean ± standard error of the mean, unless otherwise stated. The intestinal growth-promoting effect of glepaglutide in naive rats was determined using a two-way analysis of variance (ANOVA, dose and time), and significant findings were further analyzed with the Bonferroni post hoc test. In the INDO model, a t-test was used to compare INDO control-treated rats with vehicle control-treated rats, and INDO control-treated rats with glepaglutide-treated rats. A p value of ≤ 0.05 was considered statistically significant. Grubbs’ test was used to test for outliers in the section, and outliers were not included in the analyses. Differences in survival between different groups were compared by the Cox–Mantel log-rank test.

naive Wistar rats = assay: Intestinotrophic effect in naive rats; type: in vivo, rat; details: 80 and 400 nmol/kg SC once daily for 7 days, vs vehicle, 400 vs 80 nmol/kg p < 0.05
Experimental: Glepaglutide (80 nmol/kg or 400 nmol/kg, SC, once daily) or vehicle (SC, once daily) were administered for 14 days to naive Wistar rats to assess the intestinotrophic properties of the peptide, before initiating studies in the small intestinal inflammation model (Fig. 1A). Overall, 18 rats were included per arm, with 6 rats each sacrificed on day 0, day 7, and day 14.
as §1, with “The biopsies were immediately frozen in liquid nitrogen and stored at -80 °C for later analysis of concentrations of α-1-AGP and MPO using commercially available enzyme-linked immunosorbent assay kits (Life Diagnostics [2510–2] and Hycult Biotech [HK 210], respectively). The preparation method was validated in house.” left out
Data are presented as mean ± standard error of the mean, unless otherwise stated. The intestinal growth-promoting effect of glepaglutide in naive rats was determined using a two-way analysis of variance (ANOVA, dose and time), and significant findings were further analyzed with the Bonferroni post hoc test. […]

[4] = test system: patients with moderate to severe CD; details: 8 weeks of treatment, failed to reach statistical significance; cited from earlier work
From the text: Use of GLP-2 agonists for the treatment of IBD is not a novel concept. The ability of teduglutide to induce remission or to reduce the Crohn’s disease activity index (CDAI) score by at least 100 points after 8 weeks of treatment was examined in patients with moderate to severe CD [37]. […] We speculate that the study was underpowered and that the assessment of mucosal healing, rather than the CDAI, would have been a better endpoint to assess the effect of ...

[5] = co-treatment, body weight recovery phase (day 14), vs INDO controls
[6] = post-treatment, active inflammation phase (day 4), ELISA, vs INDO controls, p < 0.01
[7] = post-treatment, body weight recovery phase (day 16), vs INDO controls

COc1ccc2c(c1)c(CC(=O)O)c(C)n2C(=O)c1ccc(Cl)cc1 [INDO, indomethacin]
Induction of inflammation, INDO 3 mg/kg (male Wistar rats [1]): insufficient for inducing inflammation
Induction of macroscopic features of inflammation, INDO 7 mg/kg (male Wistar rats [1]): sufficient and appropriate
Mortality, INDO 15 mg/kg (male Wistar rats [2]): exaggerated mortality

HGEGTFSSELATILDALAARDFIAWLIATKITDKKKKKK-NH2 (C-terminus assumed) [Glepaglutide]
Emax ± SEM, agonism of hGLP-2R (cAMP accumulation) (hGLP-2R; response normalized to a saturating concentration of hGLP-2 and baseline cAMP of unstimulated receptor, mean ± SEM, n = 5): 102 ± 3.7
Ileal MPO concentration, co-treatment ([3]; co-treatment, active inflammation phase (day 3), ELISA, vs INDO controls, p < 0.001): significantly decreased
Ileal α-1-AGP concentration, co-treatment ([3]; co-treatment, active inflammation phase (day 3), ELISA, vs INDO controls, p < 0.05): significantly decreased
Small intestinal shortening (small intestinal length), co-treatment ([3]; co-treatment, active inflammation phase (day 3), vs INDO controls, p < 0.001): reversed
Ileal mass, co-treatment, active inflammation phase ([3]; co-treatment, active inflammation phase, vs INDO controls, p < 0.05): significantly increased
Ileal mass, co-treatment, body weight recovery phase [3, 5]: significantly increased
Jejunal mass, co-treatment, body weight recovery phase [3, 5]: significantly increased
Acute body weight loss, co-treatment ([3]; co-treatment, vs INDO controls, p < 0.001, data not shown): significantly decreased
Ileal α-1-AGP concentration, post-treatment [3, 6]: significantly decreased
Jejunal α-1-AGP concentration, post-treatment [3, 6]: significantly decreased
Jejunal MPO concentration, post-treatment ([3]; post-treatment, active inflammation phase (day 4), ELISA, vs INDO controls, p < 0.05): significantly decreased
Small intestinal shortening (small intestinal length), post-treatment ([3]; post-treatment, active inflammation phase (day 4), vs INDO controls, p = 0.05): significantly reversed
Ileal mass, post-treatment, body weight recovery phase [3, 7]: significantly increased
Jejunal mass, post-treatment, body weight recovery phase [3, 7]: significantly increased
Acute body weight loss, post-treatment ([3]; post-treatment, data not shown): no effect
Small intestinal mass, day 7 (naive Wistar rats): dose-dependently increased

[Gly^2]GLP-2 [teduglutide]
Effect on CDAI score [4]: positive, dose-dependent effect

HGEGTFSSELATILDALAARDFIAWLIATKITDKKKKKK-NH2 [Glepaglutide]
EC50 (hGLP-2R; SEM): 0.0933 nM
Survival ([3]; co- and post-treatment regimens, Cox–Mantel log-rank test): no effect
